In this assay the target is T1, YesU (Bacillus subtilis, UniProt O31524).
T1 construct: captured by His tag on NTA chip
T1 sequence (O31524 1-220): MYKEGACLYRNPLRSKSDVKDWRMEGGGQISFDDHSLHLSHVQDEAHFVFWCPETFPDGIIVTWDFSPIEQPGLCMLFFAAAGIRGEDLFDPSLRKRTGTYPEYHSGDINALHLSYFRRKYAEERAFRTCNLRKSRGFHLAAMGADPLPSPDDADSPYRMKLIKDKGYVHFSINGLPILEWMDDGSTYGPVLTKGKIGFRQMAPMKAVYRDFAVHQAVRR
The assay is described as follows: SPR, steady state, single cycle, Biacore T100. Format: binding. To be noted: His-YesU on Ni-NTA chip; PBS-MgCl2 pH 7.4; 25 °C. From the text: SPR, steady state, single cycle, Biacore T100 on YesU
Background: SPR reads the build-up and loss of mass on a sensor chip optically.

As usually defined, the Kd is the constant that tells how readily two partners part at equilibrium. Higher therefore signals lower affinity.

Structures are written as SMILES.

For the compound `CC(=O)N[C@H]1[C@H](O[C@H]2[C@@H](O)[C@@H](CO)O[C@@H](O[C@H]3[C@H](O)[C@@H](O)C(O)O[C@@H]3CO)[C@@H]2O)O[C@H](CO)[C@@H](O[C@@H]2O[C@H](CO)[C@H](O)[C@H](O)[C@H]2O)[C@@H]1O` (stereo partly drawn) [1H, Galβ1-4GlcNAcβ1-3Galβ1-4Glc], binding was put at a Kd of 440 ± 20 nM. The value for `CC(=O)N[C@H]1[C@H](O[C@H]2[C@H](O)[C@@H](NC(C)=O)[C@H](O[C@H]3[C@H](O)[C@@H](NC(C)=O)C(O)O[C@@H]3CO)O[C@@H]2CO)O[C@H](CO)[C@@H](O[C@@H]2O[C@H](CO)[C@@H](O[C@@H]3O[C@H](CO)[C@@H](O[C@@H]4O[C@H](CO)[C@@H](O)[C@H](O)[C@H]4NC(C)=O)[C@H](O)[C@H]3NC(C)=O)[C@H](O)[C@H]2NC(C)=O)[C@@H]1O` (stereo partly drawn) [4D, GlcNAcβ1-4GlcNAcβ1-4GlcNAcβ1-4GlcNAcβ1-4GlcNAcβ 1-4GlcNAc] was 1130 ± 20 nM. The result for `CC(=O)N[C@H]1[C@H](O[C@H]2[C@@H](O)[C@@H](CO)O[C@@H](O[C@H]3[C@H](O)[C@@H](O)C(O)O[C@@H]3CO)[C@@H]2O)O[C@H](CO)[C@@H](O)[C@@H]1O[C@@H]1O[C@H](CO)[C@H](O)[C@H](O)[C@H]1O[C@@H]1O[C@@H](C)[C@@H](O)[C@@H](O)[C@@H]1O` (stereo partly drawn) [7A, Fucα1-2Galβ1-3GlcNAcβ1-3Galβ1-4Glc] reads 1230 ± 20 nM. The value for `CC(=O)N[C@H]1[C@H](O[C@H]2[C@@H](O)[C@@H](CO)O[C@@H](O[C@H]3[C@H](O)[C@@H](O)C(O)O[C@@H]3CO)[C@@H]2O)O[C@H](CO)[C@@H](O[C@@H]2O[C@H](CO)[C@H](O)[C@H](O)[C@H]2O)[C@@H]1O[C@@H]1O[C@@H](C)[C@@H](O)[C@@H](O)[C@@H]1O` (stereo partly drawn) [7C, Galβ1-4(Fucα1-3)GlcNAcβ1-3Galβ1-4Glc] was 140 ± 1 nM.

With `CC(=O)N[C@H]1[C@H](O[C@H]2[C@@H](O)[C@@H](CO)O[C@@H](O[C@H]3[C@H](O[C@@H]4O[C@@H](C)[C@@H](O)[C@@H](O)[C@@H]4O)[C@@H](O)C(O)O[C@@H]3CO)[C@@H]2O)O[C@H](CO)[C@@H](O[C@@H]2O[C@@H](C)[C@@H](O)[C@@H](O)[C@@H]2O)[C@@H]1O[C@@H]1O[C@H](CO)[C@H](O)[C@H](O)[C@H]1O` (stereo partly drawn) [7E, Galβ1-3(Fucα1-4)GlcNAcβ1-3Galβ1-4(Fucα1-3)Glc], the Kd was 340 ± 10 nM. The result for `C[C@@H]1O[C@@H](O[C@H]2C(O)O[C@H](CO)[C@H](O)[C@@H]2O)[C@@H](O)[C@H](O)[C@@H]1O` (stereo partly drawn) [7F, Fucα1-2Gal] reads 360 ± 10 nM. With `CC(=O)N[C@H]1C(O)O[C@H](CO)[C@@H](O[C@@H]2O[C@H](CO)[C@H](O)[C@H](O)[C@H]2O)[C@@H]1O[C@@H]1O[C@@H](C)[C@@H](O)[C@@H](O)[C@@H]1O` (stereo partly drawn) [7I, Galβ1-4(Fucα1-3)GlcNAc], the affinity, expressed as Kd, was 150 ± 6 nM. The value for `CC(=O)N[C@H]1C(O)O[C@H](CO)[C@@H](O[C@@H]2O[C@@H](C)[C@@H](O)[C@@H](O)[C@@H]2O)[C@@H]1O[C@@H]1O[C@H](CO)[C@H](O)[C@H](O)[C@H]1O` (stereo partly drawn) [7J, Galβ1-3(Fucα1-4)GlcNAc] was 420 ± 4 nM. The value for `CC(=O)N[C@H]1[C@@H](O[C@H]2[C@@H](O)[C@@H](CO)OC(O)[C@@H]2O[C@@H]2O[C@@H](C)[C@@H](O)[C@@H](O)[C@@H]2O)O[C@H](CO)[C@H](O)[C@@H]1O` (stereo partly drawn) [7K, GalNAcα1-3(Fucα1-2)Gal] was 7630 ± 300 nM; that for `C[C@@H]1O[C@@H](O[C@H]2C(O)O[C@H](CO)[C@H](O)[C@@H]2O[C@H]2O[C@H](CO)[C@H](O)[C@H](O)[C@H]2O)[C@@H](O)[C@H](O)[C@@H]1O` (stereo partly drawn) [7M, Galα1-3(Fucα1-2)Gal] was 190 ± 3 nM. The result for `CC(=O)N[C@H]1C(O)O[C@H](CO)[C@@H](O[C@@H]2O[C@H](CO)[C@H](O)[C@H](O)[C@H]2O[C@@H]2O[C@@H](C)[C@@H](O)[C@@H](O)[C@@H]2O)[C@@H]1O[C@@H]1O[C@@H](C)[C@@H](O)[C@@H](O)[C@@H]1O` (stereo partly drawn) [7N, Fucα1-2Galβ1-4(Fucα1-3)GlcNAc] reads 340 ± 2 nM; that for `CC(=O)N[C@H]1C(O)O[C@H](CO)[C@@H](O[C@@H]2O[C@H](CO)[C@H](O)[C@H](O)[C@H]2O[C@@H]2O[C@@H](C)[C@@H](O)[C@@H](O)[C@@H]2O)[C@@H]1O` (stereo partly drawn) [7O, Fucα1-2Galβ1-4GlcNAc], 340 ± 4 nM; that for `CC(=O)N[C@H]1C(O)O[C@H](CO)[C@@H](O[C@@H]2O[C@@H](C)[C@@H](O)[C@@H](O)[C@@H]2O)[C@@H]1O[C@@H]1O[C@H](CO)[C@H](O)[C@H](OS(=O)(=O)O)[C@H]1O` (stereo partly drawn) [8A, SO3-3Galβ1-3(Fucα1-4)GlcNAc], 2070 ± 20 nM. The compound `CC(=O)N[C@H]1[C@H](O[C@H]2[C@@H](O)[C@@H](CO)O[C@@H](O[C@H]3[C@H](O)[C@@H](O)C(O)O[C@@H]3CO)[C@@H]2O)O[C@H](CO)[C@@H](O[C@@H]2O[C@H](CO)[C@H](O)[C@H](O)[C@H]2O[C@@H]2O[C@@H](C)[C@@H](O)[C@@H](O)[C@@H]2O)[C@@H]1O[C@@H]1O[C@@H](C)[C@@H](O)[C@@H](O)[C@@H]1O` (stereo partly drawn) [8H, Fucα1-2Galβ1-4(Fucα1-3)GlcNAcβ1-3Galβ1-4Glc] returned a dissociation constant Kd of 1140 ± 30 nM.

The compound `CC(=O)NC1C(OC2C(O)C(COC3OC(CO)C(OC4OC(CO)C(O)C(OC5OC(CO)C(OC6OC(CO)C(O)C(O)C6O)C(O)C5NC(C)=O)C4O)C(OC4OC(C)C(O)C(O)C4O)C3NC(C)=O)OC(OC3C(CO)OC(O)C(O)C3O)C2O)OC(CO)C(OC2OC(CO)C(O)C(O)C2O)C1O` (stereo not drawn) [8N, Galβ1-3GlcNAcβ1-3Galβ1-4(Fucα1-3)GlcNAcβ1-6(Galβ1-3 GlcNAcβ1-3)Galβ1-4Glc] showed a Kd of 240 ± 20 nM.

Source of the values: publication PMC6120924, “YesU from Bacillus subtilis preferentially binds fucosylated glycans” (Scientific Reports, 2018).
